Experiments:
Assay in all cases: Herbicide activity test in green house
Format in all cases: in vivo
pig weed [1] = settings: dose 1.25 kg/ha, sprayed at 2-4 leaves, evaluated on 14th day
Italian grass [2] = settings: dose 1.25 kg/ha, sprayed at 2-4 leaves, evaluated on 14th day
fat hen [3] = settings: dose 1.25 kg/ha, sprayed at 2-4 leaves, evaluated on 14th day
corn [4] = settings: dose 1.25 kg/ha, sprayed at 2-4 leaves, evaluated on 14th day
fat hen [5] = settings: sprayed at 2-4 leaves, evaluated on 14th day
Procedure: (§1) In culture dishes white mustard, pig weed, fat hen, autumn wheat, Italian grass and corn seeds were sown. When the seeds were sprouted 10% EC and 10% WSC were prepared from the compounds to be tested, and after dilution with water 0.2% spray was prepared. 2-4 leaves plants were sprayed with this liquid so that for each compound a dose corresponding to 2.5-5-10 kg./ha active ingredient was used. On the 14th day after the treatment the extent of the injury of the plants was evaluated and expressed in %.

Italian grass [6] = settings: sprayed at 2-4 leaves, evaluated on 14th day
Procedure: as §1

corn [7] = settings: sprayed at 2-4 leaves, evaluated on 14th day
Procedure: as §1

white mustard [8] = settings: sprayed at 2-4 leaves, evaluated on 14th day
Procedure: as §1

autumn wheat [9] = settings: sprayed at 2-4 leaves, evaluated on 14th day
Procedure: as §1

pig weed [10] = settings: sprayed at 2-4 leaves, evaluated on 14th day
Procedure: as §1

autumn wheat [11] = settings: dose 1.25 kg/ha, sprayed at 2-4 leaves, evaluated on 14th day
white mustard [12] = settings: dose 1.25 kg/ha, sprayed at 2-4 leaves, evaluated on 14th day

| Compound | extent of the injury of the plants, pig weed (pig weed [1]) [%] | extent of the injury of the plants, Italian grass (Italian grass [2]) [%] | extent of the injury of the plants, fat hen (fat hen [3]) [%] | extent of the injury of the plants, corn (corn [4]) [%] | extent of the injury of the plants, fat hen (fat hen [5]; dose 2.5 kg/ha) [%] | extent of the injury of the plants, fat hen (fat hen [5]; dose 5.0 kg/ha) [%] | extent of the injury of the plants, Italian grass (Italian grass [6]; dose 2.5 kg/ha) [%] | extent of the injury of the plants, Italian grass (Italian grass [6]; dose 5.0 kg/ha) [%] | extent of the injury of the plants, corn (corn [7]; dose 2.5 kg/ha) [%] | extent of the injury of the plants, corn (corn [7]; dose 5.0 kg/ha) [%] | extent of the injury of the plants, white mustard (white mustard [8]; dose 2.5 kg/ha) [%] | extent of the injury of the plants, white mustard (white mustard [8]; dose 5.0 kg/ha) [%] | extent of the injury of the plants, autumn wheat (autumn wheat [9]; dose 2.5 kg/ha) [%] | extent of the injury of the plants, autumn wheat (autumn wheat [9]; dose 5.0 kg/ha) [%] | extent of the injury of the plants, pig weed (pig weed [10]; dose 2.5 kg/ha) [%] | extent of the injury of the plants, pig weed (pig weed [10]; dose 5.0 kg/ha) [%] | extent of the injury of the plants, autumn wheat (autumn wheat [11]) [%] | extent of the injury of the plants, white mustard (white mustard [12]) [%] |
| --- | --- | --- | --- | --- | --- | --- | --- | --- | --- | --- | --- | --- | --- | --- | --- | --- | --- | --- |
| CNC.O=[N+]([O-])c1cc([N+](=O)[O-])c(O)c(C(F)(F)F)c1 [2-trifluoromethyl-4,6-dinitro-phenol-dimethyl-amine] | 50 | 0 | 70 | 0 | 75 | 85 | 0 | 20 | 0 | 10 | 55 | 75 | 0 | 10 | 65 | 80 | 0 | 45 |
| CC(=O)Oc1c([N+](=O)[O-])cc([N+](=O)[O-])cc1C(F)(F)F [2-trifluoromethyl-4,6-dinitrophenol methyl carbonyl] | 50 | 0 | 70 | 0 | 90 | 100 | 10 | 20 | 0 | 10 | 70 | 90 | 0 | 10 | 80 | 95 | 0 | 40 |
| O=[N+]([O-])c1cc([N+](=O)[O-])c(O)c(C(F)(F)F)c1 [2-trifluoromethyl-4,6-dinitro-phenol-K] | 45 | 0 | 70 | 0 | 90 | 100 | 10 | 15 | 10 | 15 | 75 | 90 | 0 | 15 | 85 | 100 | 0 | 65 |
| O=[N+]([O-])c1cc([N+](=O)[O-])c(O)c(C(F)(F)F)c1 [2-trifluoromethyl-4,6-dinitro-phenol-diethanol-amine] | 50 | 0 | 70 | 0 | 75 | 80 |  | 10 |  | 10 | 60 | 80 |  | 10 | 60 | 85 | 0 | 40 |
| CCC(=O)Oc1c([N+](=O)[O-])cc([N+](=O)[O-])cc1C(F)(F)F [2-trifluoromethyl-4,6-dinitro-phenol-ethyl carbonyl] | 40 | 0 | 60 | 0 | 70 | 80 | 0 | 10 | 0 | 10 | 50 | 80 | 0 | 10 | 60 | 80 | 0 | 40 |
| O=[N+]([O-])c1cc([N+](=O)[O-])c(O)c(C(F)(F)F)c1 [2-trifluoromethyl-4,6-dinitro-phenol, 2-Trifluoromethyl-4,6-dinitro-phenol] | 50 | 0 | 75 | 0 | 90 | 100 | 10 | 30 | 5 | 15 | 75 | 95 | 5 | 10 | 85 | 100 | 0 | 45 |
| O=[N+]([O-])c1cc([N+](=O)[O-])c(O)c(C(F)(F)F)c1 [2-trifluoromethyl-4,6-dinitro-phenol-Na] | 60 | 0 | 70 | 0 | 90 | 100 | 10 | 15 | 10 | 15 | 80 | 100 | 0 | 15 | 85 | 100 | 0 | 50 |

— patent US4596893A (priority 1985, dated 1986)
